Data as given in publication PMC7320011, “Rationally designed ruthenium complexes for 1- and 2-photon photodynamic therapy” (Nature Communications, 2020).
Like-named read-outs stand apart in the source and are kept apart here.

How the values were obtained:
[1] = Distribution coefficient (shake-flask, octanol/PBS); assay type: physicochemical; settings: ICP-MS
Procedure: Using the “shake-flask” method, the distribution coefficient between the PBS and octanol phase of the sample was determined. The PBS and octanol phases were previously saturated in each other. The sample was dissolved in the phase, which is dissolving best the compound. This solution was added to an equal volume of the other phase and mixed at 190 rpm overnight with a sample mixer. Following this, the solutions were equilibrated for 4 h. The phases were carefully separated from each other. The amount of the sample in each phase was determined by ICP-MS. The evaluation was repeated three times and the ratio between the organic and aqueous phase determined.

[2] = Two-photon absorption cross section; assay type: physicochemical; settings: dichloromethane
Procedure: The two-photon absorption cross section spectra of the sample was determined upon direction comparison to Rhodamine B. The sample was irradiated with an OpoletteTM 355II (pulse width ≤ 100 fs, 80 MHz repetition rate, Spectra Physics Inc.) laser. The experimental excitation and detection conditions were conducted with negligible reabsorption processes, which could affect two-photon absorption measurements. The quadratic dependence of the two-photon induced luminescence intensity on the excitation power was verified at an excitation wavelength of 800 nm. The two-photon absorption cross section was calculated using the following equation:1 σ2,sample=σ2,reference×Φreference×creference×Isample×nsample/Φsample×csample×Ireference×nreference,
σ2 = two-photon cross section, Φ = luminescence quantum yield, c = concentration, I = integrated luminescence intensity, n = refractive index

[3] = Emission and luminescence quantum yield; assay type: physicochemical; settings: acetonitrile
Procedure: The absorption spectra of the sample was measured with a SpectraMax M2 Spectrometer (Molecular Devices). For the measurements of the emission, the sample was irradiated at 355 nm with a NT342B Nd-YAG pumped optical parametric oscillator (Ekspla). The emission was focused at right angle to the excitation pathway and directed to a Princeton Instruments Acton SP-2300i monochromator. The signal was detected with a XPI-Max 4 CCD camera (Princeton Instruments).
The sample was prepared in an acetonitrile solution with an absorption of 0.1 at 355 nm. The sample was irradiated at 355 nm with a NT342B Nd-YAG pumped optical parametric oscillator (Ekspla). The emission was focused at right angle to the excitation pathway and directed to a Princeton Instruments Acton SP-2300i monochromator. The signal was detected with a XPI-Max 4 CCD camera (Princeton Instruments). The luminescence quantum yields were determined by comparison with the reference [Ru(2,2′-bipyridine)3]Cl2 in acetonitrile (Φem = 5.9%)[58] applying the following formula:2 Φem,sample=Φem,reference×Freference/Fsample×Isample/Ireference×nsample/nreference^2, 3 F=1−10^-A. Φem = luminescence quantum yield, F = fraction of light absorbed, I = integrated emission intensities, n = refractive index, A = absorbance of the sample at irradiation wavelength.

[4] = system: noncancerous retinal pigment epithelium (RPE-1) cells; assay: (Photo-)cytotoxicity on 2D cell monolayers, RPE-1; settings: for PI (480 nm): RPE-1, dark vs 480 nm; for PI (540 nm): RPE-1, dark vs 540 nm; for IC50: 1-3 as chloride salts
Procedure: (§1) A total of 4 × 10^3 cells were seeded on 96-well plates and allowed to adhere overnight. The cells were treated with increasing concentrations of the sample diluted in cell media achieving a total volume of 200 μL. The cells were incubated with the sample for 8 h and, after this time, the medium refreshed. To study the phototoxic effect of the sample, the cells were exposed to 480 nm (spectral half-width: 20 nm, 10 min, 5.2 mW cm^−2, 3.1 J cm^−2) or 540 nm (spectral half-width: 30 nm, 40 min, 4.0 mW cm^−2, 9.5 J cm^−2) light using an Atlas Photonics LUMOS BIO irradiator. To study the dark cytotoxicity of the sample, the cells were not irradiated and the medium exchanged. The cells were grown for an additional 40 h at 37 °C. After this time, the medium was replaced with fresh medium containing resazurin with a final concentration of 0.2 mg mL^−1. The cells were incubated for 4 h and the amount of the fluorescent product resorufin determined (λex = 540 nm, λem = 590 nm) with a SpectraMax M2 Microplate Reader (Molecular Devices). The obtained data was analyzed with the GraphPad Prism software.

[5] = Singlet oxygen quantum yield, direct evaluation (1O2 phosphorescence); assay type: physicochemical
Procedure: Direct evaluation: the sample was prepared in an air-saturated acetonitrile or deuterated water solution with an absorption of 0.2 at 450 nm. The sample was irradiated at 450 nm with a mounted M450LP1 LED (Thorlabs), whose light was focused with aspheric condenser lenses. Using a T-Cube LED Driver (Thorlabs), the intensity of the irradiation was varied and monitored with an optical power and energy meter. The emission was focused at right angle to the excitation pathway and directed to a Princeton Instruments Acton SP-2300i monochromator. To cut off light at wavelengths shorter than 850 nm, a longpass glass filter was placed in front of the monochromator entrance slit. The signal was detected with an EO-817L IR-sensitive liquid-nitrogen cooled germanium diode detector (North Coast Scientific Corp.). The luminescence signal, centered at 1270 nm, was measured from 1100 to 1400 nm. The obtained data were analyzed upon plotting the integrated luminescence peaks against the percentage of the irradiation intensity. The slope of the linear regression was calculated and compared with the reference Rose Bengal (Φ = 76%)[59]. The absorption of the sample was corrected with an absorption correction factor. The singlet oxygen quantum yields were calculated using the following formula:4 Φsample=Φreference×Ssample/Sreference×Ireference/Isample, 5 I=I0×1−10^-A.
Φ = singlet oxygen quantum yield, S = slope of the linear regression of the plot of the areas of the singlet oxygen luminescence peaks against the irradiation intensity, I = absorption correction factor, I0 = light intensity of the irradiation source, and A = absorption of the sample at irradiation wavelength.

[6] = system: human glioblastoma astrocytoma (U373) cells;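 also: Resazurin-to-resorufin fluorescence viability readout, 8 h compound exposure then medium change, light dose 3.1 J cm^−2 at 480 nm or 9.5 J cm^−2 at 540 nm, analysed 40 h later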
[7] = system: noncancerous retinal pigment epithelium (RPE-1) cells
Procedure: as §1

Excited state lifetime = assay type: physicochemical; settings: for τ air, excited state lifetime: air saturated acetonitrile; for τ degassed, excited state lifetime: degassed acetonitrile
Procedure: The sample was prepared in an air saturated as well as a degassed acetonitrile solution with an absorption of 0.2 at 355 nm. The sample was irradiated at 355 nm with a NT342B Nd-YAG pumped optical parametric oscillator (Ekspla). The emission was focused at right angle to the excitation pathway and directed to a Princeton Instruments Acton SP-2300i monochromator. The signal was detected with a R928 photomultiplier tube (Hamamatsu).

[8] = system: human cervical carcinoma (HeLa) cells; assay: (Photo-)cytotoxicity on 2D cell monolayers, HeLa; assay type: cell-based; settings: for IC50: 1-3 as chloride salts; for PI (480 nm): dark vs 480 nm; for PI (540 nm): dark vs 540 nm
Procedure: as §1

[9] = Singlet oxygen quantum yield, indirect evaluation (1O2 scavenger absorbance); assay type: physicochemical
Procedure: Indirect evaluation: measurement in acetonitrile: the sample was prepared in an air-saturated acetonitrile solution with an absorption of 0.2 at the irradiation wavelength, N,N-dimethyl-4-nitrosoaniline aniline (RNO, 24 µM) and imidazole (12 mM). Measurement in PBS buffer: the sample was prepared in an air-saturated PBS solution containing the complex with an absorption of 0.2 at the irradiation wavelength, N,N-dimethyl-4-nitrosoaniline aniline (RNO, 20 µM) and histidine (10 mM). The samples were irradiated for various time points with an Atlas Photonics LUMOS BIO irradiator. The absorption of the samples was constantly monitored with a SpectraMax M2 Microplate Reader (Molecular Devices). The difference in absorption (A0 − A) at 420 nm for the measurement in acetonitrile or at 440 nm for the measurement in PBS was determined. The difference in absorption was then plotted against the irradiation times and the slope of the linear regression calculated. The absorption of the sample was corrected with an absorption correction factor. The singlet oxygen quantum yields were calculated using the same formulas as used for the direct evaluation.

[10] = read-out: IC50 540 nm (40 min, 9.5 J cm-2), RPE-1, 540 nm
[11] = read-out: IC50 dark, RPE-1, dark
[12] = 480 nm, read-out: IC50 480 nm (10 min, 3.1 J cm-2)
[13] = 540 nm, read-out: IC50 540 nm (40 min, 9.5 J cm-2)

| Compound | logD (octanol/PBS) [1] | σ2, 2P absorption cross section [2] [GM] | Φem, luminescence quantum yield [3] [%] | λem, emission maximum [3] [nm] | PI (480 nm) [4] | PI (540 nm) [4] | IC50 [4, 10] [µM] | IC50 [4, 11] [µM] | Singlet oxygen quantum yield, Direct 450 nm CH3CN [5] [%] | IC50 [6] [µM] | IC50 [7] [µM] | τ air, excited state lifetime (Excited state lifetime) [ns] | τ degassed, excited state lifetime (Excited state lifetime) [ns] | IC50 [8, 12] [µM] | IC50 [8, 13] [µM] | PI (540 nm) [8] | IC50 ([8]; dark, read-out: IC50 dark) [µM] | Singlet oxygen quantum yield, Indirect 450 nm CH3CN [9] [%] | Singlet oxygen quantum yield, Indirect 450 nm PBS [9] [%] | Singlet oxygen quantum yield, Indirect 540 nm CH3CN [9] [%] | other results |
| --- | --- | --- | --- | --- | --- | --- | --- | --- | --- | --- | --- | --- | --- | --- | --- | --- | --- | --- | --- | --- | --- |
| CN(C)c1ccc(/C=C/c2ccnc(-c3cc(/C=C/c4ccc(N(C)C)cc4)ccn3)c2)cc1.CN(C)c1ccc(/C=C/c2ccnc(-c3cc(/C=C/c4ccc(N(C)C)cc4)ccn3)c2)cc1.F[P-](F)(F)(F)(F)F.F[P-](F)(F)(F)(F)F.[Ru+2].c1ccc(-c2ccccn2)nc1 [compound 4, [Ru(2,2′-bipyridine)((E,E′)-4,4′-Bis[p-(N,N-dimethylamino)styryl]-2,2′-bipyridine)2][PF6]2] | +1.7 ± 0.3 | 838 | 0.4 | 703 | > 9.2 | > 6.8 | 14.7 | > 100 | 34 | 19 | 10.9 | 69 | 417 | 8.5 | 10.6 | > 9.4 | > 100 | 40 | 2 | 37 | PI (480 nm) [8]: > 11.8; Singlet oxygen quantum yield, Indirect 540 nm PBS [9]: 3% |
| COc1ccc(/C=C/c2ccnc(-c3cc(/C=C/c4ccc(OC)cc4)ccn3)c2)cc1.COc1ccc(/C=C/c2ccnc(-c3cc(/C=C/c4ccc(OC)cc4)ccn3)c2)cc1.F[P-](F)(F)(F)(F)F.F[P-](F)(F)(F)(F)F.[Ru+2].c1ccc(-c2ccccn2)nc1 [compound 5, [Ru(2,2′-bipyridine)((E,E′)-4,4′-Bis[p-methoxystyryl]-2,2′-bipyridine)2][PF6]2] | +1.4 ± 0.2 | 313 | 1.4 | 674 | > 9.8 | > 7.9 | 12.7 | > 100 | 54 | 17.8 | 10.2 | 36 | 231 | 6.4 | 7.9 | > 12.7 | > 100 | 51 | 8 | 46 | Singlet oxygen quantum yield, Indirect 540 nm PBS [9]: 6% |
| CN(C)c1ccc(/C=C/c2ccnc(-c3cc(/C=C/c4ccc(N(C)C)cc4)ccn3)c2)cc1.F[P-](F)(F)(F)(F)F.F[P-](F)(F)(F)(F)F.[Ru+2].c1ccc(-c2ccccn2)nc1.c1ccc(-c2ccccn2)nc1 [compound 6, [Ru(2,2′-bipyridine)2((E,E′)-4,4′-Bis[p-(N,N-dimethylamino)styryl]-2,2′-bipyridine)][PF6]2] | +0.7 ± 0.2 | 349 | 0.5 | 697 | > 13.7 | > 12.3 | 8.1 | > 100 | 46 | 10.7 | 7.3 | 54 | 405 | 5.3 | 5.8 | > 17.2 | > 100 | 53 | 2 | 38 | PI (480 nm) [8]: > 18.9; Singlet oxygen quantum yield, Indirect 540 nm PBS [9]: 2% |
